What all share (test): growth of human tumour cells (NCI), 48 h
The test system of experiment [1] is UO-31 renal.
The test system of experiment [2] is HOP-92 NSCLC.
Experiment [3] concerns LOX IMVI melanoma.
Experiment [4] has as its system SF-268 CNS.
Experiment [5] has as its system NCI/ADR-RES ovarian.
Experiment [6] relates to HS 578T breast.
Experiment [7] has as its system HCT-116 colon.
Experiment [8] concerns CCRF-CEM leukemia.
Experiment [9] deals with U251 CNS.
Experiment [10] concerns SF-539 CNS.

Drawing on PubChem BioAssay (NCI), this text covers GI50 and TGI for 18 compounds.

Where “and” joins values, the source holds several entries; their conditions need not be identical. Equal entries are not always repeated.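 Grown in 96-well plates, cells were treated for 48 hours with each compound at five concentrations. Insufficient inhibition: endpoint recorded as highest concentration tested. GI50 marks 50% less growth. TGI marks complete inhibition of growth.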

Regarding `O=C1c2ccc3c4c(ccc(c24)C(=O)N1CCCCO)C(=O)N(CCCCO)C3=O`, the GI50 in [1] is 1.87 µM; in experiment [2], 3.51 µM; in [3] it was 1.35 µM; in [4], 2.09 µM; in experiment [5] it was 2.33 µM; in experiment [6], 5.14 µM. The GI50 in experiment [7] was 1.22 µM; in experiment [8] it was 2.74 µM; in experiment [9], 2.14 µM; in experiment [10], 1.45 µM. Further, the TGI came to 7.65 µM in experiment [1]; 7.98 µM in [2]; 3.58 µM in [3]; 11.5 µM in experiment [4]; 11 µM in experiment [5]; 24 µM in experiment [6]. Moreover, the TGI in [7] was 6.16 µM; in experiment [8], > 100 µM; in [9], 6.57 µM; in experiment [10], 3.87 µM.

Turning to `COc1oc(C2C/C(=C/C(C)=C/C(C)=C/C(C)=C/c3ccc([N+](=O)[O-])cc3)CO2)c(C)c(=O)c1C` (stereo not given), the TGI is 27.5 µM in [1]; 40 µM in experiment [2]; 23.4 µM in experiment [3]; 42.6 µM in experiment [4]; > 49.6 µM in experiment [5]; > 31.6 µM in experiment [6]. The TGI in experiment [7] is 18.2 µM; in [8], 23.5 µM; in experiment [9] it was 31.5 µM; in experiment [10], 33.4 µM.

Turning to `COc1cccc(/C=C\C(=O)c2ccccc2)c1`, the GI50 in experiment [1] was 2.18 µM; in experiment [2], 6.46 µM; in experiment [3], 2.42 µM; in [4], 5.96 µM; in experiment [5], 17.2 µM; in experiment [6] it was 4.15 µM. Further, the GI50 in [7] is 2.66 µM; in [8] it was 6.79 µM; in experiment [9], 2.77 µM; in experiment [10], 10.7 µM. Moreover, the TGI in experiment [1] is 5.96 µM; in [2], 26.2 µM; in [3], 7.38 µM; in experiment [4], 28.9 µM; in experiment [5], > 100 µM; in [6] it was 27.7 µM. Besides, the TGI in [7] was 8.27 µM; in experiment [8], > 100 µM; in experiment [9] it was 14.1 µM; in experiment [10] it was 24.1 µM.

As for `Cc1ccc(C)c(N2CCN(c3ccncc3N)CC2)c1`, the GI50 in experiment [1] is 17.2 µM; in [2] it was 12.3 µM; in experiment [3], 20.6 µM; in experiment [4] it was 24.9 µM; in experiment [5], 14.5 µM; in experiment [6] it was 14.8 µM. The GI50 is 11.9 µM in experiment [7], 21.5 µM in experiment [8], 4.78 µM in [9] and 15.4 µM in [10]. Moreover, the TGI in [1] was 96.3 µM; in experiment [2] it was 46.2 µM; in experiment [3], 61.1 µM; in experiment [4], > 100 µM; in [5], > 100 µM; in experiment [6], 38.4 µM. Also, the TGI in experiment [7] was > 100 µM; in experiment [8] it was 94.3 µM; in [9], 97.4 µM; in experiment [10] it was 56.9 µM.

Regarding `Cc1[nH]c2c(C)c3c([nH]c4ccc(Cl)cc43)c(C)c2c(=O)c1C`, the TGI in experiment [1] was 38.9 µM; in experiment [2], > 100 µM; in experiment [3], 15.7 µM; in experiment [4] it was > 100 µM; in [5], 60.5 µM; in [6] it was > 100 µM. Besides, the TGI in [7] was found to be 11.3 µM; in [8], 18.1 µM; in [9], 23.3 µM; in experiment [10], 36 µM.

`COc1cc([C@H]2OC[C@@H]3C(c4cc(OC)c5c(c4)OCO5)OC[C@H]23)cc(OC)c1OC` (stereo not given in full): the TGI in [1], in [2], in [3], in experiment [4], in experiment [5] and in [6] was > 100 µM throughout. In addition, the TGI in [7], in experiment [8], in [9] and in experiment [10] was > 100 µM each time.

In the case of `CC/C(=C/c1ccc(OC)cc1)[N+](=O)[O-]`, the GI50 in experiment [1] was 1.42 µM; in [2], 1.74 µM; in experiment [3], 1.47 µM; in experiment [4], 3.01 µM; in experiment [5] it was 3.13 µM; in experiment [6] it was 3.84 µM. Moreover, the GI50 was 1.61 µM in experiment [7], 1.96 µM in experiment [8], 3.18 µM in [9] and 1.82 µM in experiment [10]. In addition, the TGI in experiment [1] stood at 3.04 µM; in [2] it was 3.43 µM; in experiment [3] it was 2.98 µM; in [4] it was 10.4 µM; in [5] it was 11.5 µM; in [6] it was 22.2 µM. The TGI in experiment [7] was 3.1 µM; in [8] it was 5.72 µM; in experiment [9], 10.5 µM; in [10], 3.38 µM.

Regarding `Nc1nc(N)c(CCCCc2ccc([N+](=O)[O-])cc2)c(N)n1`, the TGI in experiment [1], in experiment [2], in [3], in experiment [4], in experiment [5] and in experiment [6] was > 100 µM throughout. In addition, the TGI in experiment [7], in experiment [8], in experiment [9] and in experiment [10] was > 100 µM throughout.

Take `O=C1c2ccccc2C(=O)c2c1ccc1c3ccccc3n(-c3ccccc3)c21`: the TGI was 55.1 µM in experiment [1]; 11.7 µM in experiment [2]; 30.4 µM in [3]; 54 µM in experiment [4]; > 100 µM in experiment [5]; 42.7 µM in [6]. The TGI in experiment [7] is 47.5 µM; in [8], 14.5 µM; in [9], > 100 µM; in experiment [10] it was 43.6 µM.

Take `CCOC(=O)c1c(CN2CCCCC2)nc2ccc(Cl)cc2c1-c1ccccc1`: the GI50 in experiment [1] is 20.6 µM; in experiment [2] it was 15.8 µM; in experiment [3] it was 20 µM; in [4], 23.2 µM; in experiment [5], 19.6 µM; in experiment [6], 27.1 µM. Further, the GI50 in experiment [7] is 15.6 µM; in [8], 7.6 µM; in experiment [9], 20.3 µM; in experiment [10] it was 26.7 µM. The TGI in [1] stood at 53.9 µM; in experiment [2], 39.9 µM; in experiment [3], 44.2 µM; in experiment [4], 55.3 µM; in experiment [5] it was 58.2 µM; in [6], 75.1 µM. In addition, the TGI came to 37 µM in experiment [7], 36.6 µM in experiment [8], 41.2 µM in [9] and 66.2 µM in experiment [10].

In the case of `C=C1C(=O)C23C(O)CC4C(C)(C)CCC(O)C4(C)C2CC(OC(C)=O)C1[C@H]3O` (stereo not given in full), the TGI in experiment [1] stood at 29.7 µM; in [2] it was 7.01 µM; in experiment [3] it was 15.8 µM; in experiment [4], 22.1 µM; in experiment [5], 42.9 µM; in experiment [6], 53.7 µM. The TGI in experiment [7] was 5.88 µM; in [8], 2.7 µM; in experiment [9], 22.8 µM; in experiment [10], 9.45 µM.

For the compound `COc1ccc([C@@H]2[C@@H](Cl)C(=O)N2c2cc(OC)c(OC)c(OC)c2)cc1C`, the GI50 in experiment [1] was 0.172 µM; in [2], 0.144 µM; in experiment [3] it was 0.0692 µM; in [4] it was 0.137 µM; in [5], 0.0426 µM; in experiment [6], 0.049 µM. The GI50 in experiment [7] is 0.0401 µM; in experiment [8], 0.0465 µM; in [9] it was 0.044 µM; in experiment [10] it was 0.0293 µM. For the same compound, the TGI was 47.6 µM in experiment [1]; 24.9 µM in [2]; 17 µM in experiment [3]; 25 µM in experiment [4]; > 100 µM in [5]; 77.4 µM in experiment [6]. Further, the TGI in [7] is 11.4 µM; in [8], > 100 µM; in experiment [9], 17.5 µM; in experiment [10], 14.6 µM.

`O=C(NOCCO)c1ccc2cncn2c1Nc1ccc(I)cc1F`: the GI50 is 0.0596 µM and 0.0455 µM in experiment [1]; 0.0147 µM and 0.0103 µM in experiment [2]; 0.0493 µM and 0.0635 µM in [3]; > 10 µM and 22 µM in experiment [4]; > 10 µM and 29.4 µM in experiment [5]; > 10 µM and 60.6 µM in [6]. Moreover, the GI50 in experiment [7] was 0.0101 µM and < 0.01 µM; in [8], > 10 µM and 28.1 µM; in [9], 0.722 µM; in [10], > 10 µM and 12.4 µM. Further, the TGI was > 100 µM in [1]; 0.325 µM and 0.0811 µM in [2]; > 10 µM and 47.1 µM in [3]; > 100 µM in experiment [4]; > 100 µM in experiment [5]; > 100 µM in experiment [6]. Moreover, the TGI in experiment [7] was > 10 µM and 20.6 µM; in [8] it was > 100 µM; in experiment [9] it was > 90.1 µM; in experiment [10] it was > 100 µM.

For `COC(=O)C(=O)C(C(=O)C(=O)Nc1cc(C)ccc1C)c1nc2ccccc2[nH]c1=O` (stereo not given), the TGI in experiment [1], in experiment [2], in experiment [3], in [4], in experiment [5] and in experiment [6] was > 100 µM each time. In addition, the TGI in experiment [7], in experiment [8], in experiment [9] and in experiment [10] was > 100 µM throughout.

In the case of `O=C(Nc1c[nH]c(=O)[nH]c1=O)Oc1ccccc1`, the TGI in experiment [1], in experiment [2], in experiment [3], in experiment [4], in [5] and in experiment [6] was > 100 µM each time. Further, the TGI in experiment [7], in [8], in experiment [9] and in experiment [10] was > 100 µM in each case.

In the case of `NP1(Oc2ccc(F)cc2)=NP(N)(Oc2ccc(F)cc2)=NP(Oc2ccc(F)cc2)(Oc2ccc(F)cc2)=N1` (stereo not given), the TGI came to 14.2 µM in [1]; 15.4 µM in experiment [2]; 19.7 µM in experiment [3]; 26.7 µM in experiment [4]; 18.4 µM in [5]; 17.7 µM in experiment [6]. Besides, the TGI came to 15.7 µM in [7], 18.9 µM in experiment [8], 15.9 µM in experiment [9] and 27.5 µM in experiment [10].

As to `Nc1nc(SCC#CCCl)c2[nH]cnc2n1`, the GI50 in [1] is 2.39 µM; in [2], 2.16 µM; in [3], 2.97 µM; in [4], 3.93 µM; in experiment [5], 6.16 µM; in [6], 3.89 µM. Moreover, the GI50 was 3.86 µM in experiment [7], 3.39 µM in [8], 2.97 µM in experiment [9] and 3.61 µM in [10]. In addition, the TGI in experiment [1] was found to be 11.5 µM; in [2], 10.4 µM; in experiment [3], 11.8 µM; in experiment [4], 18.6 µM; in experiment [5] it was 30.4 µM; in experiment [6], 56.6 µM. In addition, the TGI in [7] stood at 15.2 µM; in experiment [8], 19.3 µM; in [9] it was 7.79 µM; in experiment [10], 15.4 µM.

For the compound `N#Cc1ccc2c(-c3ccnc(NC4CC4)n3)c(-c3ccc(F)cc3)nn2c1`, the GI50 in experiment [1] is 6.78 µM; in experiment [2] it was > 25 µM; in [3], > 25 µM; in [4], > 25 µM; in experiment [5], > 25 µM; in experiment [6] it was > 25 µM. For the same compound, the GI50 in experiment [7], in [8], in [9] and in experiment [10] was > 25 µM in each case. Besides, the TGI in [1], in [2], in experiment [3], in experiment [4], in experiment [5] and in [6] was > 25 µM in each case. Further, the TGI in experiment [7], in [8], in [9] and in experiment [10] was > 25 µM in each case.
